Assay [1] has as its system Bax/Bcl-2. Description: Western blot, Bax/Bcl-2 ratio in HepG2 cells. To be noted: 24 h, high concentration (sagittatoside A 49, icariside I 50, baohuoside I 32, icaritin 3.8 μg/mL), vs untreated cells. It counts as cell-based. On the procedure: (§1) To explore the mechanism of apoptosis induced by the hepatotoxic compounds, the expression of key proteins related to apoptosis, including Bax, Bcl-2, Caspase-3 and Caspase-9, was assessed by western blotting. HepG2 cells were treated with different concentrations of the hepatotoxic compounds for 24 h and collected with a cell scraper. The concentrations of sagittatoside A were set to 12.2, 24.5, and 49 μg/mL; those of icariside I were 12.5, 25, and 50 μg/mL; baohuoside I was used at 8, 16, and 32 μg/mL; and icaritin was tested at 0.9, 1.9 and 3.8 μg/mL. The cells were washed twice with PBS and lysed in total protein cell lysis buffer. Protein concentrations were determined using a BCA protein assay kit (Thermo Fisher Scientific, Waltham, MA, USA). Then, to destroy the 3-dimensional protein structure, the proteins in the loading buffer were heated at 95 °C for 5 min. An equal amount of protein from each sample was separated by SDS-PAGE on 10% SDS–polyacrylamide gels. After the protein was transferred to a polyvinylidene difluoride membrane (Millipore, Bedford, MA, USA), the membrane was incubated in blocking buffer (5% nonfat dairy milk in TBST) for 2 h and probed with various antibodies (1:1000) overnight at 4 °C. […] The changes in the protein expression levels are expressed as percentages relative to the levels measured in the corresponding control groups.
(In general: Immunoblotting shows a protein as a band on a membrane.)

Assay [2] concerns caspase-3. The assay can be described thus: Western blot, caspase-3 expression in HepG2 cells. The assay is classed as cell-based. As to conditions: 24 h, high concentration (sagittatoside A 49, icariside I 50, baohuoside I 32, icaritin 3.8 μg/mL), vs untreated cells. On the procedure:
as §1

Consider `COc1ccc(-c2oc3c(CC=C(C)C)c(O)cc(O)c3c(=O)c2O[C@@H]2O[C@@H](C)[C@H](O)[C@@H](O)[C@H]2O)cc1` [baohuoside I], for which the Bax/Bcl-2 ratio entry in assay [1] is given as “increased”. The caspase-3 expression entry in assay [2] is reported as “significant increase”.
Turning to `COc1ccc(-c2oc3c(CC=C(C)C)c(O)cc(O)c3c(=O)c2O)cc1` [icaritin], the Bax/Bcl-2 ratio entry in assay [1] is on record as “increased”. The caspase-3 expression result in assay [2] is on record as “significant increase”.

Source of the values: PMC10975178, “Evaluation on the Potential for Hepatotoxic Components from Herba Epimedii to Induce Apoptosis in HepG2 Cells and the Analysis of the Influence of Metabolism in Liver Microsomes” (Molecules, 2024).
